According to US5430053A, “Isolation and structure of dictyostatin 1” (Arizona Board of Regents acting on behalf of Arizona State …, priority 1994, dated 1995):
Converted amounts (≈) assume the structure as drawn. “Also recorded” adds a separate entry of the source. Read-outs that look alike come from different tables or passages of the source.

Legend:
[1] = system: P388 lymphocytic leukemia; experiment: P388 lymphocytic leukemia cell line (PS system) growth inhibition; assay type: cell-based, murine
human cancer cell lines = experiment: NCI panel of sixty human cancer cell lines; assay type: cell-based; settings: for activity against human cancer cell lines (in words): NCI panel
Excerpt: (§1) Only two hundred years ago, many diseases ravaged humankind. Many of these diseases now have been controlled or eradicated. In the development of the means to treat or control these diseases, work with the appropriate common experimental animals was of critical importance. With the various types of cancers, and with the HIV virus, such work is presently ongoing. The research for the treatment of various types of cancer is coordinated in the United States by the National Cancer Institute (NCI). NCI, as a government entity, has been charged with assisting, inter alia, anti-cancer research. To determine whether a substance has anti-cancer activity, NCI has established a variety of protocols, one of which involves testing the candidate substance against a cell line panel containing 60 human tumor cell lines. This protocol has been verified and is generally accepted throughout the scientific community. This protocol and the established statistical means of evaluating the results obtained therefrom have been fully described in the literature. See Principles & Practice of Oncology PPO Updates, Volume 3, Number 10, October 1989, by Michael R. Boyd, M.D., Ph.D., for an in depth description of the test protocol. The statistical analysis of the test protocol is explained in "Display and Analysis of Patterns of Differential Activity of Drugs Against Human Tumor Cell Lines: Development of Means Graph and COMPARE Algorithm" Journal of the National Cancer Institute Reports Vol. 81, No. 14, Pg. 1088, Jul. 14, 1989, by K. D. Paull et al. The context of both of these references is specifically incorporated herein by this reference thereto.

[2] = system: NCI H460 non-small cell lung; experiment: NCI panel, NCI H460; assay type: cell-based, human
Excerpt: as §1, with “The statistical analysis of the test protocol is explained in "Display and Analysis of Patterns of Differential Activity of Drugs Against Human Tumor Cell Lines: Development of Means Graph and COMPARE Algorithm" Journal of the National Cancer Institute Reports Vol. 81, No. 14, Pg. 1088, Jul. 14, 1989, by K. D. Paull et al. The context of both of these references is specifically incorporated herein by this reference thereto.” left out

KM 20L2 colon = experiment: NCI panel, KM 20L2; assay type: cell-based, human
Excerpt: as §1, with “The statistical analysis of the test protocol is explained in "Display and Analysis of Patterns of Differential Activity of Drugs Against Human Tumor Cell Lines: Development of Means Graph and COMPARE Algorithm" Journal of the National Cancer Institute Reports Vol. 81, No. 14, Pg. 1088, Jul. 14, 1989, by K. D. Paull et al. The context of both of these references is specifically incorporated herein by this reference thereto.” left out

SF-295 CNS = experiment: NCI panel, SF-295; assay type: cell-based, human
Excerpt: as §1, with “The statistical analysis of the test protocol is explained in "Display and Analysis of Patterns of Differential Activity of Drugs Against Human Tumor Cell Lines: Development of Means Graph and COMPARE Algorithm" Journal of the National Cancer Institute Reports Vol. 81, No. 14, Pg. 1088, Jul. 14, 1989, by K. D. Paull et al. The context of both of these references is specifically incorporated herein by this reference thereto.” left out

SK-MEL-5 melanoma = experiment: NCI panel, SK-MEL-5; assay type: cell-based, human
Excerpt: as §1, with “The statistical analysis of the test protocol is explained in "Display and Analysis of Patterns of Differential Activity of Drugs Against Human Tumor Cell Lines: Development of Means Graph and COMPARE Algorithm" Journal of the National Cancer Institute Reports Vol. 81, No. 14, Pg. 1088, Jul. 14, 1989, by K. D. Paull et al. The context of both of these references is specifically incorporated herein by this reference thereto.” left out

OVCAR-3 ovarian = experiment: NCI panel, OVCAR-3; assay type: cell-based, human
Excerpt: as §1, with “The statistical analysis of the test protocol is explained in "Display and Analysis of Patterns of Differential Activity of Drugs Against Human Tumor Cell Lines: Development of Means Graph and COMPARE Algorithm" Journal of the National Cancer Institute Reports Vol. 81, No. 14, Pg. 1088, Jul. 14, 1989, by K. D. Paull et al. The context of both of these references is specifically incorporated herein by this reference thereto.” left out

A-498 renal = experiment: NCI panel, A-498; assay type: cell-based, human
Excerpt: as §1, with “The statistical analysis of the test protocol is explained in "Display and Analysis of Patterns of Differential Activity of Drugs Against Human Tumor Cell Lines: Development of Means Graph and COMPARE Algorithm" Journal of the National Cancer Institute Reports Vol. 81, No. 14, Pg. 1088, Jul. 14, 1989, by K. D. Paull et al. The context of both of these references is specifically incorporated herein by this reference thereto.” left out

C=C/C=C\C(C)C1OC(=O)/C=C\C=C\C(C)C(O)CC(O)/C=C\C(C)C(O)C(C)CC(C)CCC(O)C1C (stereo not drawn) [dictyostatin 1]
growth inhibition of murine P388 lymphocytic leukemia (in words) [1]: strongly inhibit growth
IC50 ([1]; Mus musculus, P388, pure dictyostatin 1, read-out: P388 ED50): 0.38 ng/mL (≈ 0.713 nM)
growth inhibition of murine P388 lymphocytic leukemia (in words) ([1]; listed as Dictyostatin 1): phenomenally potent (and selective) activity; also recorded: strongly inhibit growth
activity against human cancer cell lines (in words) (human cancer cell lines): strong cancer cell growth inhibitory properties; also recorded: remarkably potent and specific
activity against human cancer cell lines (in words) (human cancer cell lines; listed as Dictyostatin 1): phenomenally potent (and selective) activity; also recorded: strongly inhibit growth
NCI data (in words) (human cancer cell lines; ovarian, CNS, renal, lung (non small cell), colon, and melanoma cells): extremely positive results
activity against NCI H460 (in words) [2]: active and selective
activity against KM 20L2 (in words) (KM 20L2 colon): active and selective
activity against SF-295 (in words) (SF-295 CNS): active and selective
activity against SK-MEL-5 (in words) (SK-MEL-5 melanoma): active and selective
activity against OVCAR-3 (in words) (OVCAR-3 ovarian): active and selective
activity against A-498 (in words) (A-498 renal): active and selective
